These results are taken from patent publication US9926276B2, “Substituted benzamides with activity towards EP4 receptors” (DRACONIS PHARMA, S.L., priority 2013, dated 2018).

Assay [1] deals with T1, human EP4 receptor (Homo sapiens, UniProt P35408). Kind of assay: Measurement of cAMP responses by Homogeneous Time Resolved Fluorescence (Test 2). The format is cell-based. Details: expressed in transfected cells. The following applies: for Results of Test 2 (Functional assay, antagonist % inh): at 10 μM, PGE2 1 nM, HEK-293 cells stably expressing human EP4; for inhibition at 10 µM: HEK293, PGE2 1 nM, HEK-293 cells stably expressing human EP4, read-out: Results of Test 2 (Functional assay, antagonist % inh). How it is done: Test 2: Measurement of cAMP Responses by Homogeneous Time Resolved Fluorescence
cAMP measurements on HEK-293 cells that stably expressed human EP4 receptors were performed by using a system based on Homogeneous Time Resolved Fluorescense (HTRF). This technology allows the direct measurement of cAMP in living cells. The principle of this assay is based on competition between cAMP produced by cells and cAMP-d2 conjugate for the binding with monoclonal anti-cAMP-cryptate conjugate. The HTRF cAMP kit from CisBio was used according to the manufacturer's directions. The experimental procedure was performed as stated below.
Suspended cells (30,000 cells per well) were added to 96-well culture plates in 30 μl of Optimem supplemented with 500 μM IBMX. Compounds were then added in 10 μl of stimulation buffer and incubated at 25° C. for 30 minutes followed by 10 μl of PGE2 to a final concentration of 1 nM. After 30 minutes at 25° C., the reaction was stopped lysing the cells with a mixture of 25 μl of cryptate and 25 μl of cAMP-d2 prepared in the lysis buffer supplied by the manufacturer. Plates were incubated for an additional hour at room temperature and read at 665 nm/620 nm using an UltraEvolution Plate reader (Tecan).
Antagonist percentage inhibition was calculated relating compounds activity to the 0% inhibition of the wells incubated with 1 nM PGE2 alone and 100% inhibition of the wells incubated with 1 nM PGE2 plus 1 μM of the reference antagonist.

The target in assay [2] is T1, human EP4 receptor. Put plainly: Human EP4 receptor radioligand binding assay (Test 1). Also noted: expressed in transfected cells; host or cells: HEK-293 cell membranes. The following applies: [3H]-PGE2 1 nM, transfected HEK-293 cell membranes; for Results of Test 1 (Binding assay, % inh): at 10 μM; for inhibition at 10 µM: read-out: Results of Test 1 (Binding assay, % inh). How it is done:
Test 1: Human EP4 Receptor Radioligand Binding Assay
To investigate binding properties of EP4 receptor ligands to human EP4 receptor, transfected HEK-293 cell membranes and [3H]-PGE2 (Perkin Elmer) were used. In 96-well plates the assay was carried out with a total reaction volume of 250 μl, containing 25 μl of membrane suspension (30 μg protein/well), 25 μl of [3H]-PGE2 (1 nM) in either absence or presence of 25 μl of either buffer or PGE2 (10 μM) for total and non-specific binding, respectively. Binding buffer contained 25 mM MES, 10 mM MgCl2 and 1 mM EDTA at pH 6.0. Plates were incubated at 25° C. for 120 minutes. After the incubation period, 200 μl of incubate were transferred to MultiScreen HTS, FB plates (Millipore), filtered and plates were washed 6 times with ice-cold 10 mM MES, 0.01% BSA at pH 6.0. Filters were dried and counted in a MicroBeta scintillation counter (Perkin-Elmer) using EcoScint liquid scintillation cocktail.
Percentage inhibition was calculated relating compounds activity to the 0% inhibition of the wells incubated with 1 nM [3H]-PGE2 alone (total binding) and 100% inhibition of the wells incubated with 1 nM [3H]-PGE2 plus 10 μM PGE2 (non-specific binding).

T1 sequence (P35408 whole entry): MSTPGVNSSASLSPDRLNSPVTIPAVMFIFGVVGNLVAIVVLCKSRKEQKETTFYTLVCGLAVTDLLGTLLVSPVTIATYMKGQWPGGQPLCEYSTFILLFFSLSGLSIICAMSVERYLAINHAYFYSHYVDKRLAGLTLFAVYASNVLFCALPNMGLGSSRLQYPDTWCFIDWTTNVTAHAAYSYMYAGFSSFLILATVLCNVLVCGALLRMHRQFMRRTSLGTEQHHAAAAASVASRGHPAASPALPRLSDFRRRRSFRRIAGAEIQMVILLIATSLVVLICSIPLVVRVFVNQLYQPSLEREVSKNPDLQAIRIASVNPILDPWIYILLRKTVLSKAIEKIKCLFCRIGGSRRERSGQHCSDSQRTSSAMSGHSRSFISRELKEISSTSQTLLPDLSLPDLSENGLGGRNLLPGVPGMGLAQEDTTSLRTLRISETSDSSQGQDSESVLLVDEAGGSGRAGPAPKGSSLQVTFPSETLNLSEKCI

As to `Cc1ccc(-c2cccc(C(N)=O)c2)cc1C(=O)Nc1c(C)cc(C(=O)O)cc1C` [Example 13, 4-(3′-Carbamoyl-4-methylbiphenyl-3-ylcarboxamido)-3,5-dimethylbenzoic acid], the “Results of Test 2 (Functional assay, antagonist % inh)” value in assay [1] is reported as “$ (% inh >75)”. Moreover, in assay [2], the “Results of Test 1 (Binding assay, % inh)” value is listed as “# (% inh >75)”.
In the same order, the values of `O=C(O)c1cc(Cl)c(NC(=O)c2cc(-c3cccc(CO)c3)ccc2Cl)c(Cl)c1` [Example 16, 3,5-Dichloro-4-(4-chloro-3′-(hydroxymethyl)biphenyl-3-ylcarboxamido)benzoic acid] are “$ (% inh >75)” and “# (% inh >75)”.
As to `CC(C)c1ccc(C(=O)O)cc1NC(=O)c1cc(-c2cccc(Cl)c2)ccc1Cl` [Example 46, 3-(3′,4-Dichlorobiphenyl-3-ylcarboxamido)-4-isopropylbenzoic acid], the “Results of Test 2 (Functional assay, antagonist % inh)” value in assay [1] is “$ (% inh >75)”. Moreover, the “Results of Test 1 (Binding assay, % inh)” value in assay [2] is “# (% inh >75)”.
With `Cc1cc(C(=O)O)cc(C)c1NC(=O)c1cc(-c2cccc(CO)c2)ccc1Cl` [Example 2, 4-(4-Chloro-3′-(hydroxymethyl)biphenyl-3-ylcarboxamido)-3,5-dimethylbenzoic acid], the “Results of Test 2 (Functional assay, antagonist % inh)” value in assay [1] is reported as “$ (% inh >75)”. Further, in assay [2], the “Results of Test 1 (Binding assay, % inh)” value is “# (% inh >75)”.
The corresponding values for `Cc1ccc(-c2cccc(CO)c2)cc1C(=O)Nc1c(C)cc(C(=O)O)cc1C` [Example 9, 4-(3′-(Hydroxymethyl)-4-methylbiphenyl-3-ylcarboxamido)-3,5-dimethylbenzoic acid] are “$ (% inh >75)” and “# (% inh >75)”.
As for `Cc1ccc(C(=O)O)cc1NC(=O)c1nc(-c2cccc(Cl)c2)ccc1Cl` [Example 42, 3-(3-Chloro-6-(3-chlorophenyl)picolinamido)-4-methylbenzoic acid], the inhibition at 10 µM in assay [1] and in assay [2] was more than 75% in each case.
For `Cc1ccc(-c2cccc(Cl)c2)cc1C(=O)Nc1c(Cl)cc(C(=O)O)cc1Cl` [Example 15, 3,5-Dichloro-4-(3′-chloro-4-methylbiphenyl-3-ylcarboxamido)benzoic acid], the “Results of Test 2 (Functional assay, antagonist % inh)” value in assay [1] is “$ (% inh >75)”. Moreover, the “Results of Test 1 (Binding assay, % inh)” value in assay [2] is “# (% inh >75)”.
Turning to `Cc1ccc(-c2cccc(C#N)c2)cc1C(=O)Nc1c(Cl)cc(C(=O)O)cc1Cl` [Example 7, 3,5-Dichloro-4-(3′-cyano-4-methylbiphenyl-3-ylcarboxamido)benzoic acid], the “Results of Test 2 (Functional assay, antagonist % inh)” value in assay [1] is listed as “$ (% inh >75)”. In addition, the “Results of Test 1 (Binding assay, % inh)” value in assay [2] is recorded as “# (% inh >75)”.
In the case of `O=C(O)c1cc(Cl)c(NC(=O)c2cc(-c3cccc(Cl)c3)ccc2Cl)c(Cl)c1` [Example 19, 3,5-Dichloro-4-(3′,4-dichlorobiphenyl-3-ylcarboxamido)benzoic acid], in assay [1], the “Results of Test 2 (Functional assay, antagonist % inh)” value is reported as “$ (% inh >75)”. Also, in assay [2], the “Results of Test 1 (Binding assay, % inh)” value is listed as “# (% inh >75)”.
With `O=C(O)c1cc(Cl)c(NC(=O)c2cc(-c3nccc(C(F)(F)F)n3)ccc2Cl)c(Cl)c1` [Example 60, Sodium 3,5-dichloro-4-(2-chloro-5-(4-(trifluoromethyl)pyrimidin-2-yl)benzamido)benzoate], the inhibition at 10 µM in assay [1] and in assay [2] was more than 75% throughout.
On to `O=C(O)c1cc(Cl)c(NC(=O)c2nc(N3CCCCC3)ccc2Cl)c(Cl)c1` [Example 57, 3,5-Dichloro-4-(3-chloro-6-(piperidin-1-yl)picolinamido)benzoic acid], for which the inhibition at 10 µM in assay [1] and in assay [2] was more than 75% throughout.
With `Cc1ccc(-c2cccc(Cl)c2)cc1C(=O)Nc1c(C)cc(C(=O)O)cc1C` [Example 20, 4-(3′-Chloro-4-methylbiphenyl-3-ylcarboxamido)-3,5-dimethylbenzoic acid], in assay [1], the “Results of Test 2 (Functional assay, antagonist % inh)” value was “$ (% inh >75)”. Besides, the “Results of Test 1 (Binding assay, % inh)” value in assay [2] is on record as “# (% inh >75)”.
For the compound `O=C(O)c1cc(Cl)c(NC(=O)c2cc(OCc3ccc(Cl)cc3F)ccc2Cl)c(Cl)c1` [Example 36, 3,5-Dichloro-4-(2-chloro-5-(4-chloro-2-fluorobenzyloxy)benzamido)benzoic acid], the inhibition at 10 µM in assay [1] and in assay [2] was more than 75% throughout.
`Cc1ccc(-c2cc(F)ccc2F)cc1C(=O)Nc1c(C)cc(C(=O)O)cc1C` [Example 11, 4-(2′,5′-Difluoro-4-methylbiphenyl-3-ylcarboxamido)-3,5-dimethylbenzoic acid]: the “Results of Test 2 (Functional assay, antagonist % inh)” value in assay [1] was “$ (% inh >75)”. For the same compound, the “Results of Test 1 (Binding assay, % inh)” value in assay [2] is listed as “# (% inh >75)”.
In the same order, the values of `Cc1ccc(-c2cccc(C(F)(F)F)c2)cc1C(=O)Nc1c(C)cc(C(=O)[O-])cc1C.[Na+]` [Example 58, Sodium 3,5-dimethyl-4-(4-methyl-3′-(trifluoromethyl)biphenyl-3-ylcarboxamido)benzoate] are “$ (% inh >75)” and “# (% inh >75)”.
With `Cc1ccc(-c2cccc(Cl)c2)cc1C(=O)Nc1cc(C(=O)O)ccc1C(C)C` [Example 45, 3-(3′-Chloro-4-methylbiphenyl-3-ylcarboxamido)-4-isopropylbenzoic acid], the “Results of Test 2 (Functional assay, antagonist % inh)” value in assay [1] is recorded as “$ (% inh >75)”. Also, the “Results of Test 1 (Binding assay, % inh)” value in assay [2] is “# (% inh >75)”.
`O=C(O)c1cc(Cl)c(NC(=O)c2cc(OCc3ccc(F)cc3F)ccc2Cl)c(Cl)c1` [Example 35, 3,5-Dichloro-4-(2-chloro-5-(2,4-difluorobenzyloxy)benzamido)benzoic acid]: the inhibition at 10 µM in assay [1] and in assay [2] was more than 75% throughout.
Take `Cc1ccc(-c2cc(Cl)ccc2F)cc1C(=O)Nc1c(C)cc(C(=O)O)cc1C` [Example 10, 4-(5′-Chloro-2′-fluoro-4-methylbiphenyl-3-ylcarboxamido)-3,5-dimethylbenzoic acid]: the “Results of Test 2 (Functional assay, antagonist % inh)” value in assay [1] was “$ (% inh >75)”. The “Results of Test 1 (Binding assay, % inh)” value in assay [2] was “# (% inh >75)”.
With `CC(C)COc1ccc(Cl)c(C(=O)Nc2c(Cl)cc(C(=O)O)cc2Cl)c1` [Example 25, 3,5-Dichloro-4-(2-chloro-5-isobutoxybenzamido)benzoic acid], the inhibition at 10 µM in assay [1] and in assay [2] was more than 75% each time.
On to `COc1cccc(-c2ccc(Cl)c(C(=O)Nc3c(C)cc(C(=O)O)cc3C)c2)c1` [Example 1, 4-(4-Chloro-3′-methoxybiphenyl-3-ylcarboxamido)-3,5-dimethylbenzoic acid], for which the “Results of Test 2 (Functional assay, antagonist % inh)” value in assay [1] is listed as “$ (% inh >75)”. Further, the “Results of Test 1 (Binding assay, % inh)” value in assay [2] is listed as “# (% inh >75)”.
Take `Cc1cc(C(=O)O)cc(C)c1NC(=O)c1cc(OCC(C)C)ccc1Cl` [Example 24, 4-(2-Chloro-5-isobutoxybenzamido)-3,5-dimethylbenzoic acid]: the inhibition at 10 µM in assay [1] and in assay [2] was more than 75% each time.
Take `Cc1cc(C(=O)O)ccc1NC(=O)c1cc(-c2cccc(Cl)c2)ccc1Cl` [Example 21, 4-(3′,4-Dichlorobiphenyl-3-ylcarboxamido)-3-methylbenzoic acid]: the “Results of Test 2 (Functional assay, antagonist % inh)” value in assay [1] is given as “$ (% inh >75)”. Also, the “Results of Test 1 (Binding assay, % inh)” value in assay [2] was “# (% inh >75)”.
With `COc1cc(Cl)cc(-c2ccc(C)c(C(=O)Nc3c(C)cc(C(=O)O)cc3C)c2)c1` [Example 59, 4-(3′-Chloro-5′-methoxy-4-methylbiphenyl-3-ylcarboxamido)-3,5-dimethylbenzoic acid], the “Results of Test 2 (Functional assay, antagonist % inh)” value in assay [1] was “$ (% inh >75)”. In assay [2], the “Results of Test 1 (Binding assay, % inh)” value is “# (% inh >75)”.
Consider `N#Cc1cccc(-c2ccc(Cl)c(C(=O)Nc3c(Cl)cc(C(=O)O)cc3Cl)c2)c1` [Example 18, 3,5-Dichloro-4-(4-chloro-3′-cyanobiphenyl-3-ylcarboxamido)benzoic acid], for which the “Results of Test 2 (Functional assay, antagonist % inh)” value in assay [1] is listed as “$ (% inh >75)”. In assay [2], the “Results of Test 1 (Binding assay, % inh)” value is recorded as “# (% inh >75)”.
